# Laboratory results: US20030105165A1, “Gap junctions and EDHF” (priority 2001, published 2003)
# Read-outs that look alike come from different tables or passages of the source.
# How the values were obtained:
# [1] = test system: rabbit iliac artery rings; experiment: EDHF-type relaxation of isolated rabbit iliac artery rings constricted with phenylephrine; assay type: cell-based; conditions: for EC50: Oryctolagus cuniculus; for Maximal EDHF-type relaxations, % of PE-induced tone: approximate, at concentrations ~3 μM; for Maximal EDHF-type relaxations, % of PE-induced tone / Maximal EDHF-type relaxation, % of PE-induced tone (control): L-NAME 300 μM + indomethacin 10 μM
# Method: Isolated Ring Preparations. Male New Zealand white rabbits (2-2.5 kg) were sacrificed with sodium pentobarbitone (120 mg/kg; i.v.) and the iliac artery removed and transferred to cold Holman's buffer of the following composition (mM): 120 NaCl, 5 KCl, 2.5 CaCl2, 1.3 NaH2PO4, 25 NaHCO3, 11 glucose, and 10 sucrose. […] Endothelium-intact rings were incubated for 40 min with N^G-nitro-L-arginine methyl ester (L-NAME, 300 μM) and indomethacin (10 μM) and following constriction with phenylephrine (PE) cumulative concentration-relaxation curves to ACh or A23187 were constructed. Some preparations were preincubated for 40 min with either 2′5′-dideoxyadenosine (2′5′-DDA, 200 μM), 3-isobutyl-1-methylxanthine (IBMX, 20 μM), 18α-GA (100 μM), glibenclamide (10 μM), the combination of charybdotoxin (100 nM) and apamin (300 nM), or the combination of charybdotoxin (100 nM), apamin (300 nM) and IBMX (20 μM). Concentration-response curves to ACh and A23187 were also constructed for endothelium-denuded rings in the absence/presence of IBMX (20 μM). In experiments with IBMX the concentration of PE used to induce tone was increased from 1 to 3 μM. All reagents were obtained from Sigma, U.K.
# (§1) Statistical Analysis All data are given as mean±SEM, where n denotes the number of animals studied for each data point, and were compared by the Student's t-test for paired or unpaired data as appropriate. P<0.05 was considered as significant. Concentration-response curves were assessed by one-way analysis of variance (ANOVA) followed by the Bonferroni multiple comparisons test.
# [2] = test system: sandwich preparations of rabbit iliac artery; experiment: 'Sandwich' bioassay preparations of iliac artery (endothelium-intact donor ring, denuded detector strip); assay type: cell-based
# Description: ‘Sandwich’ preparations. Rings of iliac artery 2-3 mm wide were denuded of endothelium, cut into strips and pierced ˜2 mm from each end using a Monoject needle (0.9 mm×40 mm). These strips were introduced into the lumen of rings of endothelium-intact iliac artery 4-5 mm wide and the tissues sutured together. Composite preparations were then mounted in a Mulvany Multi Myograph (Danish Myo Technology) with the pierced denuded strips hooked onto the large vessel mountings. Tension was initially set at ˜0.25 g and readjusted during an equilibrium period of 1 h. The preparations were then incubated for 40 min with L-NAME (300 μM) and indomethacin (10 μM), constricted with PE (1 or 3 μM), and concentration-response curves constructed for ACh in the presence/absence of IBMX (20 μM), or A23187 in the presence/absence of IBMX (20 μM) or 2′5′DDA (200 μM).
# as §1
# [3] = test system: smooth muscle cAMP levels; experiment: Radioimmunoassay of cAMP in iliac artery rings; assay type: cell-based, rabbit; conditions: for Increase (elevation) in smooth muscle cAMP levels: rings incubated with L-NAME and indomethacin, endothelium-dependent
# Method: (§2) Radioimmunoassay. Multiple rings from the same artery were incubated in oxygenated Holmans buffer containing L-NAME (300 μM) and indomethacin (10 μM) for 40 min at 37° C. in the presence or absence of 18α-GA (100 μM). Rings were frozen in liquid N2 at time points up to 180 s following addition of ACh or A23187 and stored at −70° C. before extraction of cAMP or cGMP in 6% trichloroacetic acid, followed by neutralization with water saturated diethyl ether and subsequent radioimmunoassay (Amersham UK). PE (1 μM) was added 3 min before the initial control point and control experiments were performed with endothelium-denuded rings. Nucleotide levels were expressed relative to protein content (27).
# [4] = test system: cGMP levels; experiment: Radioimmunoassay of cGMP in iliac artery rings; assay type: cell-based, rabbit; conditions: in the presence of L-NAME and indomethacin
# Method: as §2
# [5] = test system: gap junctions in isolated rabbit femoral arteries; experiment: Dye transfer (calcein AM) from endothelium to media in perfused femoral arteries; assay type: cell-based; conditions: for Space constant of decay of medial fluorescence: calcein AM, control 8.54 μm; for Dye within the vessel wall after intraluminal perfusion: 10 μM dye perfused through the lumen for 30 min
# Method: Dye Transfer. […] In control experiments arteries were perfused with 10 μM calcein, which is membrane impermeable. The vessels were subsequently removed from the myograph and fixed in 0.1 M PBS containing 0.2% glutaraldehyde and 2% formalin for 90 min before cryopreservation in OCT compound (Agar Scientific, […], UK), cooled by liquid N2. Cryosections of transverse rings (10 μm thick) were prepared and mounted onto poly-L-lysine-coated slides under Fluorsave (Calbiochem) and imaged with a TCS four-dimensional confocal laser scanning system (Leica) with the filters set for 490 nm excitation and 525 nm emission. A gallery of several images was collected at 0.5-μm steps for each sample followed by image processing by using […] software to obtain a maximum projection image.
# [6] = test system: subintimal smooth muscle cells of rabbit iliac artery strips; experiment: Membrane potential experiments (sharp microelectrode) in iliac artery strips; assay type: cell-based
# Method: Membrane Potential Experiments. Iliac artery strips were held adventitia down in an oxygenated (95% O2, 5% CO2) organ chamber by a Harp slice grid (ALA Scientific Instruments, USA) superfused (2 ml/min at 37° C.) with Holmans solution containing 300 μM L-NAME and 10 μM indomethacin. Transmembrane potential was recorded with glass capillary microelectrodes (tip resistance of 60-110 M[…] filled with 3M KCl and connected to the headstage of a SEC-10LX amplifier (NPI Electronic, Germany). Successful impalements were achieved following a sudden negative drop in potential from baseline and a stable signal for at least 2 min. To ensure recordings were made from smooth muscle cells the microelectrode was advanced into the subintima using a PCS-5000 micromanipulator (Burleigh Instruments, UK) until there had been 2-3 such negative deflections. After first obtaining control responses to ACh by direct administration into the organ chamber under conditions of no flow, the strips were washed with fresh buffer before incubation with either 200 μM […] alone or the combination of 200 μM 2′,3′-DDA plus 30 μM IBMX followed by repeat exposure to ACh.
# [7] = test system: rabbit iliac artery rings; assay type: cell-based; conditions: for Effect on PE contractions: 2′,5′-DDA 200 μM, glibenclamide 10 μM, charybdotoxin 100 nM plus apamin 300 nM
# Method: Isolated Ring Preparations. Male New Zealand white rabbits (2-2.5 kg) were sacrificed with sodium pentobarbitone (120 mg/kg; i.v.) and the iliac artery removed and transferred to cold Holman's buffer of the following composition (mM): 120 NaCl, 5 KCl, 2.5 CaCl2, 1.3 NaH2PO4, 25 NaHCO3, 11 glucose, and 10 sucrose. The vessels were stripped of adherent tissue, and rings 2-3 mm wide cut and suspended in organ chambers containing gassed (95% 02, 5% CO2, pH 7.4) buffer at 37 C. Tension was set at 0.25 g and during an equilibrium period of 1 h the tissues were repeatedly washed with fresh buffer and tension readjusted following stress relaxation. Endothelium-intact rings were incubated for 40 min with N^G-nitro-L-arginine methyl ester (L-NAME, 300 μM) and indomethacin (10 μM) and following constriction with phenylephrine (PE) cumulative concentration-relaxation curves to ACh or A23187 were constructed. Some preparations were preincubated for 40 min with either 2′5′-dideoxyadenosine (2′5′-DDA, 200 μM), 3-isobutyl-1-methylxanthine (IBMX, 20 μM), 18α-GA (100 μM), glibenclamide (10 μM), the combination of charybdotoxin (100 nM) and apamin (300 nM), or the combination of charybdotoxin (100 nM), apamin (300 nM) and IBMX (20 μM). Concentration-response curves to ACh and A23187 were also constructed for endothelium-denuded rings in the absence/presence of IBMX (20 μM). In experiments with IBMX the concentration of PE used to induce tone was increased from 1 to 3 μM. All reagents were obtained from Sigma, U.K.
# [8] = test system: pig coronary artery; conditions: cited from earlier work
# [9] = endothelium-intact rings, L-NAME + indomethacin, control of IBMX / 2′,5′-DDA series, read-out: EC50 of EDHF-type relaxation (control)
# [10] = endothelium-intact rings, control of IBMX / 2′,5′-DDA series
compound,measurement,setting,value
CNc1ccc2oc(C[C@H]3O[C@@]4(CC[C@H]3C)O[C@H]([C@H](C)C(=O)c3ccc[nH]3)[C@H](C)C[C@H]4C)nc2c1C(=O)O [A23187],EC50,[1]; read-out: EC50 of A23187 relaxation (control of charybdotoxin/apamin series),291 ± 128 nM
same,EC50,[1]; [9],328 ± 123 nM
same,"Maximal EDHF-type relaxations, % of PE-induced tone",[1],~40%
same,Relaxation after endothelial denudation,[1]; endothelium-denuded rings,abolished
same,"Relaxation in endothelium-denuded rings incubated with IBMX, % of PE-induced tone","[1]; endothelium-denuded rings, IBMX 20 μM",21.7±3.6%
same,"Maximal EDHF-type relaxation, % of PE-induced tone (control)",[1]; [10],50.2±5.6%
same,"Maximal relaxation to A23187, % of PE-induced tone (control of charybdotoxin/apamin series)","[1]; endothelium-intact rings, L-NAME + indomethacin",50.0±5.8%
same,"Maximal EDHF-type relaxation in sandwich preparations, % of PE-induced tone","[2]; L-NAME 300 μM + indomethacin 10 μM, no modulator",52.0±8.0%
same,EC50,"[2]; Oryctolagus cuniculus, read-out: EC50 of relaxation in sandwich preparations",240 ± 40 nM
same,Time of peak in cAMP levels,"[3]; agonist 3 μM, endothelium-intact rings, L-NAME 300 μM + indomethacin 10 μM",40 to 50 s
same,Change of cAMP level in endothelium-denuded preparations,"[3]; endothelium-denuded, basal 3.97±0.49 pmol/mg protein",did not significantly increase
same,Increase (elevation) in smooth muscle cAMP levels,[3],1.5 fold
same,Effect on cGMP levels,[4],unaltered
Nc1nc2c(nc(Br)n2[C@@H]2O[C@@H]3COP(=O)(O)O[C@H]3[C@H]2O)c(=O)[nH]1 [8-bromo-cGMP],Space constant of decay of medial fluorescence,[5]; 1 mM nucleotide analogue,8.39 ± 0.44 μm
calcein AM,Dye within the vessel wall after intraluminal perfusion,[5],detected within the vessel wall
same,Space constant of decay of medial fluorescence (control conditions),"[5]; calcein AM 10 μM, L-NAME + indomethacin",8.54±0.39 μm
"CC(=O)OCC[N+](C)(C)C [ACh, acetylcholine]",EC50,[1]; [9],555 ± 121 nM
same,"Maximal EDHF-type relaxations, % of PE-induced tone",[1],~40%
same,"Maximal EDHF-type relaxation, % of PE-induced tone (control)",[1]; [10],36.0±5.0%
same,Increase (elevation) in smooth muscle cAMP levels,[3],1.5 fold
same,Subintimal hyperpolarization sustained below baseline,"[6]; 3 μM Ach, intact endothelium",~20 mV
"CNC[C@H](O)c1cccc(O)c1 [PE, phenylephrine]",PE-evoked constrictions,"[7]; 1 μM PE, L-NAME 300 μM and indomethacin 10 μM, intact endothelium, pooled data",2.0 ± 0.1 g
same,Initial tension restored by PE in presence of IBMX,"[7]; 3 μM PE, IBMX 20 μM, pooled data",1.8 ± 0.1 g
"C[C@H]1O[C@@H](n2cnc3c(N)ncnc32)C[C@@H]1O [2′,5′-DDA, 2′,5′-dideoxyadenosine]","Maximal relaxation to A23187 in presence of 2′,5′-DDA, % of PE-induced tone","[1]; 2′,5′-DDA 200 μM, A23187-evoked, endothelium-intact rings",40.3±8.3%
same,"Maximal relaxation to ACh in presence of 2′,5′-DDA","[1]; 2′,5′-DDA 200 μM, ACh-evoked, endothelium-intact rings",11.0±1.9%
same,"Maximal relaxation to A23187 in sandwich preparations with 2′,5′-DDA, % of PE-induced tone","[2]; 2′,5′-DDA 200 μM",18.5±9.2%
same,Effect on transient peak in cAMP levels evoked by ACh,"[3]; 2′,5′-DDA 200 μM, ACh 3 μM",abolished
same,Effect on PE contractions,[7],unaffected
COc1ccc(Cl)cc1C(=O)NCCc1ccc(S(=O)(=O)NC(=O)NC2CCCCC2)cc1 [glibenclamide],Effect on EDHF-type relaxations evoked by A23187,[1]; glibenclamide 10 μM,did not significantly affect
same,Effect on EDHF-type relaxations evoked by ACh,[1]; glibenclamide 10 μM,did not significantly affect
same,Effect on PE contractions,[7],unaffected
COc1cc2c3cc1Oc1cc(ccc1O)C[C@@H]1c4c(cc(OC)c(O)c4Oc4ccc(cc4)C[C@@H]3N(C)CC2)CC[N+]1(C)C [d-tubocurarine],Effect on endothelial hyperpolarization evoked by 0.5 μM A23187,[8],abolished
same,Effect on mechanical relaxation and endothelium and smooth muscle hyperpolarizations evoked by substance P,[8],inhibited
same,Effect on relaxation and smooth muscle hyperpolarization evoked by 0.5 μM A23187,[8],unaffected
O=C(O)CN(CC(=O)O)Cc1cc2c(cc1O)Oc1cc(O)c(CN(CC(=O)O)CC(=O)O)cc1C21OC(=O)c2ccccc21 [calcein],Dye within the vessel wall after intraluminal perfusion,[5],only autofluorescence of the internal elastic lamina was evident
"Nc1ncnc2c1ncn2[C@H]1CC[C@@H](CO)O1 [2′, 3′-DDA, 2′,3′-dideoxyadenoine]",Attenuation of transmission of electrical changes in endothelial membrane potential into subintimal smooth muscle cells,"[6]; 200 μM, ACh-evoked",~75%
"CC(C)Cn1c(=O)n(C)c(=O)c2[nH]cnc21 [IBMX, 3-isobutyl-1-methylxanthine]",Maximal relaxation to A23187 in presence of IBMX,"[1]; IBMX 20 μM, A23187-evoked, endothelium-intact rings, control 50.2%",73.0 ± 8.5%
same,Maximal relaxation to ACh in presence of IBMX,"[1]; IBMX 20 μM, ACh-evoked, endothelium-intact rings, control 36.0%",65.5±4.5%
same,Maximal relaxation to A23187 in sandwich preparations with IBMX,[2]; IBMX 20 μM,70.0±6.50%
same,"Reversal of the 2′,3′-DDA block of hyperpolarization","[6]; IBMX 30 μM after 200 μM 2′,3′-DDA",completely reversed
same,Space constant of decay of medial fluorescence,[5]; 20 μM IBMX,11.50±0.80 μm and ≈ 12 μm
"CC1(C)[C@@H](O)CC[C@]2(C)[C@H]3C(=O)C=C4[C@H]5C[C@@](C)(C(=O)O)CC[C@]5(C)CC[C@@]4(C)[C@]3(C)CC[C@@H]12 [18α-GA, 18α-glycyrrhetinic acid]",Effect on EDHF-type relaxations evoked by A23187,[1]; 18α-GA 100 μM,had no effect
same,Effect on EDHF-type relaxations evoked by ACh,[1]; 18α-GA 100 μM,effectively abolished
same,Effect on nucleotide (cAMP) accumulation evoked by A23187,"[3]; 18α-GA 100 μM, A23187 3 μM",no significant effect
same,Effect on transient rise in cAMP levels evoked by ACh,"[3]; 18α-GA 100 μM, ACh 3 μM",abolished
